Data on one molecule can be found in patent US20250073209A1, “COVALENT TARGETING OF RhoA FOR CANCER THERAPY” (The University of Hong Kong, priority 2023, published 2025).

For assay [1], the system named is SW620 spheroid. Briefly: Spheroid formation assay, SW620. The assay is classed as cell-based, human. As for the experimental part: FIGS. 5A-5B are graphs showing the anticancer effects of CL16 in HT29 (FIG. 5A) and SW620 (FIG. 5B) spheroids. HT29 spheroid or SW620 spheroid were treated with CL16 at the indicated concentrations for 10 days. The spheroids were then imaged by microscope using 10× objective and the size was determined by ImageJ.
5,000 cells of HT29 and SW620 cells were inoculated in serum-free DMEM/F12 medium with 20 ng/mL […] growth factor (EGF) in 96-well round-bottom low-affinity plate (Nunc). Medium was supplemented with CL16 or Rhosin when spheroid has formed an opaque core. Morphology was recorded under a light microscope with 10× objective.
To further investigate the anticancer effects of CL16, HT29 and SW620 cells were inoculated as spheroids in low-affinity plate with 20 ng/mL EGF, and incubated with different concentrations of CL16 or Rhosin.

Assay [2] addresses RhoA (Homo sapiens, UniProt P61586). Briefly: RhoA-GTP rhotekin pull-down, serum starvation-re-stimulation. Further details: endogenous in cells; host or cells: HCT116, HT29. The assay is classed as cell-based. As for the experimental part: RhoA Pull-Down Activation Assay Biochem Kit (#BK036) was purchased from Cytoskeleton. According to the manufacturer's protocol, total cell lysate (0.5 mg/mL; 300 μL) was added to 7.5 μL of Rhotekin-Rho Binding Domain beads in 0.6 mL tubes. The solution mixture was incubated at 4° C. on an end-to-end rotator for 1 hour. Beads were washed with 500 μL of washing buffer once, then centrifuged at 5000g for 3 min and the supernatant was discarded. RhoA-GTP was then eluted in 2× laemmli buffer and resolved in 10% SDS-PAGE.
GTP loading onto RhoA is critical for the protein activation and mediating downstream signals. In view of the inhibitions of GDP-to-GTP exchange of RhoA by CL16 in vitro as discussed above, effects of CL16 on RhoA biology in colorectal cancer cells were examined. In the serum starvation-re-stimulation experiment, HCT116 cells were grown in serum-free medium with CL16, Rhosin or solvent control for 24 h, followed by stimulation with 10% FBS for 10 min. The cells were then lysed and the RhoA activity was assayed by the level of RhoA-GTP, which is the active form of RhoA. […] HT29 cells were incubated with solvent vehicle, CL16 or Rhosin in complete medium for 24 h. […] Confocal fluorescence images from HCT116 and HT29 cells expressing FRET RhoA-biosensor in the serum starvation-restimulation experiment were taken.

Assay [3] deals with Rac1 (Homo sapiens, UniProt P63000). Description: Rac1-GTP PAK-PBD pull-down in HT29 cells. The assay is classed as cell-based. Further details: endogenous in cells; host or cells: HT29. To be noted: HT29, complete medium 24 h. The text has this:
The procedure is similar to that for RhoA-GTP assay, except that Rac1-GTP and Cdc42-GTP in CRC cells were first enriched by Rac1 Pull-Down Activation Assay Biochem Kit (Cytoskeleton #BK035) instead of using the RhoA kit. The enriched Rac1-GTP and Cdc42-GTP were then immunoblotted by Rac1/2/3 antibody (CST #2465) and Cdc42 antibody (CST #2462) respectively.
GTP loading onto RhoA is critical for the protein activation and mediating downstream signals. In view of the inhibitions of GDP-to-GTP exchange of RhoA by CL16 in vitro as discussed above, effects of CL16 on RhoA biology in colorectal cancer cells were examined. In the serum starvation-re-stimulation experiment, HCT116 cells were grown in serum-free medium with CL16, Rhosin or solvent control for 24 h, followed by stimulation with 10% FBS for 10 min. The cells were then lysed and the RhoA activity was assayed by the level of RhoA-GTP, which is the active form of RhoA. […] HT29 cells were incubated with solvent vehicle, CL16 or Rhosin in complete medium for 24 h. The cells were then washed, lysed and subjected to rhotekin pull-down for blotting RhoA-GTP, or PAK-PBD pull-down for blotting Rac1-GTP and Cdc42-GTP. Confocal fluorescence images from HCT116 and HT29 cells expressing FRET RhoA-biosensor in the serum starvation-restimulation experiment were taken.

In assay [4] the target is Cdc42 (Homo sapiens, UniProt P60953). Briefly: Gel-based competitive ABPP, second screening on Cdc42. The assay is classed as binding. As for the experimental part: Recombinant human RhoA (0.1 μg; ab101594) was pretreated with cysteine-reactive compounds or DMSO for 1 hour at room temperature, followed by incubation with iodoacetamide-rhodamine (IA-Rh; 1 μM) for 1 hour at room temperature. The reaction was then quenched by boiling in sampling buffer. Samples were subjected to SDS-PAGE to separate proteins bands. In-gel fluorescence intensity was measured with a Chemidoc using setting for Rhodamine. Gel was subsequently stained with silver stain (Pierce) for visualization of protein content and covalent modification. Band intensity was quantified using ImageJ.
Chain of Cdc42 (P60953 whole entry): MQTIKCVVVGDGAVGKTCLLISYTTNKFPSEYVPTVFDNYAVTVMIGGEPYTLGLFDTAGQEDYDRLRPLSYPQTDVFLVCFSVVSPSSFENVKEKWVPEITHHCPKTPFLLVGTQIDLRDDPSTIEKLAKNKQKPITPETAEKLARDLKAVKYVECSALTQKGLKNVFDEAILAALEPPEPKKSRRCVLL
CL16 was identified for its strong and specific binding with RhoA in covalent ligand screening experiment by ABPP. ABPP is known as a powerful platform for covalent ligand screening, particularly for the identification of lead compounds targeting new hotspots for therapy. Competitive gel-based activity-based protein profiling (ABPP) experiment was performed on purified RhoA protein for screening its interactions with a library of cysteine-reactive covalent ligands with acrylamide or chloroacetamide warheads. RhoA protein for the first screening and on Rac1 and Cdc42 for the second screening to identify lead compounds with specific binding onto RhoA Cys16. […] The reaction mixture was then resolved by SDS-PAGE and in-gel fluorescence was imaged (FIG. 1A). […]

Assay [5] addresses T1, RhoA-GEF interactions (Homo sapiens, UniProt P61586).
T1 construct: host or cells: GEFs overexpressed in HEK293T lysates
Description: Co-immunoprecipitation of GST-RhoA with GEF-containing cell lysates. The assay is classed as biochemical. The conditions noted are these: GST-RhoA with HEK293T cell lysates. The procedure:
10 μg of purified GST-RhoA was immobilized on Glutathione resin (Pierce) and incubated with CL16 in GTP-exchange buffer (20 mM HEPES, 150 mM NaCl, 5 mM MgCl2, pH 7.4) for 1 hour. Then, the mixture was centrifuged at 700g for 2 min and supernatant was discarded. 120 μg of total cell lysate with overexpression of GEF (Arhgefl p-115, Arhgefl2 LARG DH-PH domain, Arhgef13 Akap Lbc) was added to the resin. The mixture was put on an end-to-end rotator and incubated at 4° C. for 4 hours. The resin was then washed, eluted and subjected to immunoblotting.

Chain of RhoA (P61586 whole entry, the tested form may be a part): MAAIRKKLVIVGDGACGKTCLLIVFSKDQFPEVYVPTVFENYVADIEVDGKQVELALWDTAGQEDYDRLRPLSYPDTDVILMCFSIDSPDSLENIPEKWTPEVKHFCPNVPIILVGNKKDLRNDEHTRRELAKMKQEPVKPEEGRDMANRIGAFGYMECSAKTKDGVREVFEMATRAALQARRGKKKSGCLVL
T1 sequence (P61586 whole entry): as the sequence (P61586 whole entry, the tested form may be a part) above

Usually IC50 stands for the concentration that gives 50% inhibition. `O=C(CCl)N1N=C(c2cc3ccccc3o2)CC1c1ccco1` (stereo not shown) [CL16]: the “growth of SW620 spheroids” value in assay [1] (20 ng/mL EGF, low-affinity plate) was “significant inhibitions in the growth”. Besides, the IC50 in assay [1] (Homo sapiens, SW-620, 240 h, 10 days, read-out: cytotoxic IC50 in SW620 spheroids) was determined as 4.1 µM. The “RhoA-GTP level compared with Rhosin” value in assay [2] (10 μM CL16 vs 30 μM Rhosin) was “lower RhoA-GTP level”. Also, the “cellular RhoA-GTP level after serum stimulation vs solvent control” value in assay [2] (HCT116, serum-free 24 h, 10% FBS 10 min) was “much lower cellular RhoA-GTP levels”. Further, the “Rac1 activity (Rac1-GTP)” value in assay [3] was “no significant changes”. In assay [4], the “binding with Cdc42” value is “no observable binding”. The “RhoA interactions with ARHGEF1, LARG DH-PH domain, AKAP13 and ARHGAP4s” value in assay [5] was “disruption of RhoA interactions”.
